Experimental data published in US12065421B2, “Inhibitors of oplophorus luciferase-derived bioluminescent complexes” (priority 2018, dated 2024).

Biological target: T1, NanoBiT® HiBiT non-luminescent peptide and LgBiT non-luminescent polypeptide (HiBiT/LgBiT bioluminescent complex) (Oplophorus gracilirostris, UniProt Q9GV45, A31E/A60N/A81I/C191F/D135N/E192K/F58L/F95D/G184S/G42A/G62A/G78A/G94A/G98A/H120P/I103V/I117V/I134L/K70R/L176M/L195S/L54V/L73R/L99Q/M102E/N171T/N193K/P142E/Q151K/Q38E/Q45L/T186S/V71I/Y165I)
T1 construct: fused on or other part: N-terminal Met-Val on LgBiT in place of the signal peptide (residues 1-27); The chain is split between residues 184 and 185 into LgBiT and the 11-residue HiBiT peptide (residues 185-195); C-terminal A196 is absent
T1 sequence (Q9GV45 other isoform, or with tags, fused parts or gaps with the stated changes): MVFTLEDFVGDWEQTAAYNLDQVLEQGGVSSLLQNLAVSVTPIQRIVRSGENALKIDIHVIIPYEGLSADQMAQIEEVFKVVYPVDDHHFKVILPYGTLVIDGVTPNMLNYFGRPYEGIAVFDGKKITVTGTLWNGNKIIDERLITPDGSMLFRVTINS
Assay: biochemical

Row | Compound | IC50
1 | Cc1ccc(S(=O)(=O)Nc2ccccc2C(=O)Nc2cc3ccccc3s2)cc1 [HL-0005, N-(benzo[b]thiophen-2-yl)-2-((4-methylphenyl)sulfonamido)benzamide] | 3.9 nM
2 | Cc1ccc(S(=O)(=O)Nc2ccccc2C(=O)NC2CCCCC2)cc1 [HL-0006, N-cyclohexyl-2-((4-methylphenyl)sulfonamido)benzamide] | 210 nM
3 | Cc1ccc(S(=O)(=O)Nc2ccccc2C(=O)Nc2ccc3ccccc3c2)cc1 [HL-0007, 2-((4-methylphenyl)sulfonamido)-N-(naphthalen-2-yl)benzamide] | 14 nM
4 | Cc1ccc(S(=O)(=O)Nc2ccccc2C(=O)Nc2ccc3c(c2)CCCC3)cc1 [HL-0008, 2-((4-methylphenyl)sulfonamido)-N-(5,6,7,8-tetrahydronaphthalen-2-yl)benzamide] | 24 nM
5 | COC(=O)[C@H]1CC[C@H](NC(=O)c2ccccc2NS(=O)(=O)c2ccc(C)cc2)CC1 [HL-0009, methyl trans-4-(2-((4-methylphenyl)sulfonamido)benzamido)cyclohexane-1-carboxylate] | 16000 nM
6 | N#Cc1c(NC(=O)c2ccccc2NS(=O)(=O)c2ccccc2)sc2c1CCC2 [HL-0010, N-(3-cyano-5,6-dihydro-4H-cyclopenta[b]thiophen-2-yl)-2-(phenylsulfonamido)benzamide] | 22 nM
7 | Cc1ccc(S(=O)(=O)Nc2ccccc2C(=O)N[C@H]2CC[C@H](C(=O)O)CC2)cc1 [HL-0012, trans-4-(2-((4-methylphenyl)sulfonamido)benzamido)cyclohexane-1-carboxylic acid] | 490 nM
8 | Cc1ccc(NC(=O)c2ccccc2NS(=O)(=O)c2ccc(C)cc2)cc1 [HL-0019, 2-((4-methylphenyl)sulfonamido)-N-(p-tolyl)benzamide] | 29 nM
9 | CCOC(=O)Cc1ccc(NC(=O)c2ccccc2NS(=O)(=O)c2ccc(C)cc2)cc1 [HL-0023, ethyl 2-(4-(2-((4-methylphenyl)sulfonamido)benzamido)phenyl)acetate] | 580 nM
10 | Cc1ccc(S(=O)(=O)Nc2ccccc2C(=O)Nc2cccc(C(C)C)c2)cc1 [HL-0025, N-(3-isopropylphenyl)-2-((4-methylphenyl)sulfonamido)benzamide] | 85 nM
11 | CCOC(=O)c1cccc(NC(=O)c2ccccc2NS(=O)(=O)c2ccc(C)cc2)c1 [HL-0026, ethyl 3-(2-((4-methylphenyl)sulfonamido)benzamido)benzoate] | 240 nM
12 | O=Cc1ccc(S(=O)(=O)Nc2ccccc2C(=O)Nc2cc3ccccc3s2)cc1 [HL-0038, N-(benzo[b]thiophen-2-yl)-2-((4-formylphenyl)sulfonamido)benzamide] | 44 nM
13 | COC(=O)CCc1ccc(S(=O)(=O)Nc2ccccc2C(=O)Nc2cc3ccccc3s2)cc1 [HL-0040, methyl 3-(4-(N-(2-(benzo[b]thiophen-2-ylcarbamoyl)phenyl)sulfamoyl)phenyl)propanoate] | 430 nM
14 | Cc1cccc(S(=O)(=O)Nc2ccccc2C(=O)Nc2cc3ccccc3s2)c1 [HL-0041, N-(benzo[b]thiophen-2-yl)-2-((3-methylphenyl)sulfonamido)benzamide] | 13 nM
15 | Cc1ccc(S(=O)(=O)Nc2ccccc2C(=O)Nc2cccc(C)c2)cc1 [HL-0044, 2-((4-methylphenyl)sulfonamido)-N-(m-tolyl)benzamide] | 88 nM
16 | Cc1ccc(S(=O)(=O)Nc2cc3ccccc3cc2C(=O)Nc2cc3ccccc3s2)cc1 [HL-0057, N-(benzo[b]thiophen-2-yl)-3-((4-methylphenyl)sulfonamido)-2-naphthamide] | 55 nM
17 | CCCc1ccccc1NC(=O)c1ccccc1NS(=O)(=O)c1ccc(C)cc1 [HL-0059, 2-((4-methylphenyl)sulfonamido)-N-(2-propylphenyl)benzamide] | 190 nM

Row | Compound | IC50
18 | Cc1ccc(S(=O)(=O)Nc2ccc(C)cc2C(=O)Nc2cc3ccccc3s2)cc1 [HL-0061, N-(benzo[b]thiophen-2-yl)-5-methyl-2-((4-methylphenyl)sulfonamido)benzamide] | 29 nM
19 | O=C(Nc1cc2ccccc2s1)c1ccccc1NS(=O)(=O)c1ccc(CCCO)cc1 [HL-0062, N-(benzo[b]thiophen-2-yl)-2-((4-(3-hydroxypropyl)phenyl)sulfonamido)benzamide] | 1200 nM
20 | CCCCc1cccc(NC(=O)c2ccccc2NS(=O)(=O)c2ccc(C)cc2)c1 [HL-0070, N-(3-butylphenyl)-2-((4-methylphenyl)sulfonamido)benzamide] | 130 nM
21 | Cc1ccc(S(=O)(=O)Nc2ccc(C#N)cc2C(=O)Nc2cc3ccccc3s2)cc1 [HL-0071, N-(benzo[b]thiophen-2-yl)-5-cyano-2-((4-methylphenyl)sulfonamido)benzamide] | 43 nM
22 | Cc1ccc(S(=O)(=O)Nc2ccccc2C(=O)Nc2sc3c(c2C#N)CCC3)cc1 [JRW-0998, N-(3-cyano-5,6-dihydro-4H-cyclopenta[b]thiophen-2-yl)-2-((4-methylphenyl)sulfonamido)benzamide] | 43 nM
23 | Cc1ccc(S(=O)(=O)Nc2ccccc2C(=O)Nc2sc3c(c2C#N)CCCC3)cc1 [JRW-1004, N-(3-cyano-4,5,6,7-tetrahydrobenzo[b]thiophen-2-yl)-2-((4-methylphenyl)sulfonamido)benzamide] | 30 nM
24 | Cc1ccc(S(=O)(=O)Nc2ccccc2C(=O)Nc2sccc2C#N)cc1 [JRW-1006, N-(3-cyanothiophen-2-yl)-2-((4-methylphenyl)sulfonamido)benzamide] | 1000 nM
25 | Cc1ccc(S(=O)(=O)Nc2ccccc2C(=O)Nc2ccccc2C#N)cc1 [JRW-1008, N-(2-cyanophenyl)-2-((4-methylphenyl)sulfonamido)benzamide] | 240 nM
26 | Cc1ccc(S(=O)(=O)Nc2ccccc2C(=O)Nc2ccccc2)cc1 [JRW-1011, 2-((4-methylphenyl)sulfonamido)-N-phenylbenzamide] | 94 nM
27 | CCCCc1ccc(NC(=O)c2ccccc2NS(=O)(=O)c2ccc(C)cc2)cc1 [JRW-1076, N-(4-butylphenyl)-2-((4-methylphenyl)sulfonamido)benzamide] | 26 nM
28 | O=C(Nc1cc2ccccc2s1)c1ccccc1NS(=O)(=O)c1ccc2c(c1)CCCC2 [JRW-1077, N-(benzo[b]thiophen-2-yl)-2-((5,6,7,8-tetrahydronaphthalene)-2-sulfonamido)benzamide] | 89 nM
29 | CCCCCCc1ccc(NC(=O)c2ccccc2NS(=O)(=O)c2ccc(C)cc2)cc1 [JRW-1090, N-(4-hexylphenyl)-2-((4-methylphenyl)sulfonamido)benzamide] | 1100 nM
30 | CCCCc1ccc(S(=O)(=O)Nc2ccccc2C(=O)Nc2cc3ccccc3s2)cc1 [JRW-1114, N-(benzo[b]thiophen-2-yl)-2-((4-butylphenyl)sulfonamido)benzamide] | 170 nM
31 | CCCCc1ccc(NS(=O)(=O)c2ccc(C)cc2)c(C(=O)Nc2cc3ccccc3s2)c1 [JRW-1146, N-(benzo[b]thiophen-2-yl)-5-butyl-2-((4-methylphenyl)sulfonamido)benzamide] | 630 nM
32 | Cc1ccc(S(=O)(=O)Nc2ccccc2C(=O)Nc2ccc(CCCCO)cc2)cc1 [JRW-1150, N-(4-(4-hydroxybutyl)phenyl)-2-((4-methylphenyl)sulfonamido)benzamide] | 19000 nM
33 | Cc1ccc(S(=O)(=O)Nc2ccccc2C(=O)Nc2ccc(CCCCBr)cc2)cc1 [JRW-1152, N-(4-(4-bromobutyl)phenyl)-2-((4-methylphenyl)sulfonamido)benzamide] | 120 nM
